US5110819A, “Substituted quinolines and medicinal use thereof” (Leo Pharmaceutical Products Ltd., priority 1987, dated 1992)

How the values were obtained:
[1] = system: cyclooxygenase; assay: synthesis of cyclooxygenase products in A23187-stimulated rat peritoneal cells; assay type: cell-based; conditions: 10^-6 M
Procedure: (§1) The following method was used to assay 5-lipoxygenase activity in vitro: Rat peritoneal cells were harvested by i.p. injection of 10 ml Hank's balanced salt solution (GIBCO, cat. No. 4025, U.S.A.) containing 12.5 U/ml sodium heparin (Leo, Denmark) in anaesthesized rats. The resulting cell suspension, which mainly contained macrophages, was transferred to a test tube and washed twice by centrifugation (200 g, 10 min.) and resuspended in Hank's balanced salt solution containing 0.5% bovine serum albumin (BSA) (Sigma Chem. Co., U.S.A.). The cells from 9 rats were finally resuspended in Hank's balanced salt solution (with BSA) containing 5 μCi [1-^14 C]arachidonic acid (The Radiochemical Centre, Amersham, U.K.) and incubated for 90 minutes at 37° C. This caused labelling of cell membrane phospholipids as radioactive arachidonic acid was incorporated in the 2-position of the glycerol moiety. Excess arachidonic acid was then removed by washing the cells twice as described above. The cells were finally resuspended in the same solution (without BSA) at 10^7 cells/ml. 475 μl of the cell suspension was preincubated at 37° C. for 5 minutes with either 5 μl dimethylsulphoxide (DMSO) (control tube), or 5 μl of a drug solution in DMSO. Then 20 μl of a mixture of equal volumes of the calcium ionophore A23187, 10^-4 M in ethanol (Calbiochem, U.S.A.), and 0.4M CaCl2 in water was added. The final concentration of A23187 was thus 2×10^-6 M, and of Ca^++ 8 mM. After 5 minutes of incubation the tubes were transferred to an ice-bath and centrifuged for 10 minutes at 3,000 g (4° C.). An aliquot of the supernatant was counted by liquid scintillation spectrometry in order to calculate the total radioactive release induced by A23187 in presence of drugs. A decrease in radioactive release was taken as indication of phospholipase A2 inhibition. The supernatant was then extracted with ethyl acetate (2 ml), adjusted to pH 3 with 1N HCl and further extracted with 2 ml ethyl acetate. The combined extracts were evaporated to dryness in vacuo, the residue was redissolved in a small volume of methanol and applied by means of a Desaga Autospotter™ to a silica-gel coated thin-layer plate fitted with a polar concentrating zone (Merck Art. 11798, Darmstadt, F.R.G.). The plates were developed in the organic layer of the solvent mixture ethyl acetate/acetic acid/iso-octane/water (55:10:25:50). Radioactive spots were detected by autoradiography (AGFA-GEVAERT, Osray-RPI X-ray film, Belgium), and changes induced by drugs in the metabolic pattern of arachidonic acid were quantified by a laser densitometer (LKB, Ultroscan™ 2202, Bromma, Sweden) in combination with an integrating computer (SP 4100, Spectra-Physics, San Jose, Calif., U.S.A.).
(§2) These cells produced measurable amounts of radioactive 6-keto-prostaglandinF1α, thromboxane B2, prostaglandin D2, hydroxyheptadecatrienoic acid (HHT) (all cyclooxygenase products), 5-hydroxyeicosatetraenoic acid (5-HETE) and leukotriene B4 (both 5-lipoxygenase products).
(§3) At the same time, a decrease in synthesis of the cyclooxygenase products HHT, prostaglandin D2, thromboxane B2 and 6-keto-prostaglandin F1α was not observed. This pattern of drug activity is indicative of truly specific 5-lipoxygenase inhibition.

[2] = system: 5-lipoxygenase; assay: 5-lipoxygenase activity in vitro (leukotriene B4 and 5-HETE production in A23187-stimulated rat peritoneal cells); assay type: cell-based; conditions: 10^-6 M
Procedure: as §1, §2, §3

[3] = Pharmacological Data, IC50 (test not stated); conditions: Pharmacological Data table
[4] = molecular target: T1, guinea-pig tracheal strips (LTD4 concentration-response) (Cavia porcellus, UniProt Q2NNR5); assay: LTD4 antagonism in guinea-pig tracheal strips (pKB); conditions: for Kb: Pharmacological Data table; for pKB value: guinea-pig tracheal strips, negative logarithm of the antagonist dissociation constant
T1 construct: from tissue; host or cells: guinea-pig tracheal strips
T1 sequence (Q2NNR5 1-340): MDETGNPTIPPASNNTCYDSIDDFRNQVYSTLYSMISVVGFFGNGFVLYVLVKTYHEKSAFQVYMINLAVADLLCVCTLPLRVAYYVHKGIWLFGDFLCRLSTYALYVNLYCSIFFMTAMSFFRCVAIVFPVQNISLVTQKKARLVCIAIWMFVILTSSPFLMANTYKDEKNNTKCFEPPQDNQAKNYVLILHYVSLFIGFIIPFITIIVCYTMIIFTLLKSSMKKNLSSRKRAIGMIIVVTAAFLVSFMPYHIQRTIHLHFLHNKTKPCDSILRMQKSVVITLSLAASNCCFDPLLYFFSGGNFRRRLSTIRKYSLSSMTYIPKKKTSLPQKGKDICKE
Description: Leukotrine antagonists may be further characterized using guinea-pig tracheal strips instead of ileum strips (10). In this relevant in vitro model of human airways (11) tracheal strips are suspended in a physiological buffer containing indomethacin. A concentration-response curve to LTD4 is generated in the presence and absence of the leukotriene antagonist. From these curves the potency of a leukotriene antagonist may be expressed as the pKB value, the negative logarithm of the antagonist dissociation constant. The pKB value is determined as -log ([antagonist]/(dose ratio -1)), where the dose ratio is defined as EC50 (pressence of antagonist)/EC50 (absence of antagonist) and EC50 refers to the concentration of LTD4 eliciting 50% of the maximum response to LTD4 (12).

[5] = molecular target: T2, LTD4 receptor (Cavia porcellus, UniProt Q2NNR5); assay: receptor binding: competition with [^3 H]LTD4 on guinea-pig lung membranes; conditions: negative logarithm of molar concentration inhibiting binding by 50%, read-out: pIC50 value ([^3 H]LTD4 binding) (converted)
T2 construct: from tissue; host or cells: guinea-pig lung membranes
T2 sequence (Q2NNR5 1-340): T1 sequence (Q2NNR5 1-340)
Description: It is of importance to investigate the receptor binding properties of leukotriene antagonists in relation to their pKB values (13), i.e. to correlate antagonist receptor blocking with inhibition of smooth muscle contraction. Receptor binding studies may be performed with guinea-pig lung membranes in a direct competition assay between a leukotriene antagonist and [^3 H]LTD4 for binding to the LTD4 receptor (10,13).

Compound | decrease in synthesis of the cyclooxygenase products HHT, prostaglandin D2, thromboxane B2 and 6-keto-prostaglandin F1α [1] | decrease in the production of leukotriene B4 and 5-HETE [2] | IC50 [3] | Kb [4] | pKB value [4] | IC50 [5]
CC(Oc1ccc(CNc2cccc(OCc3ccc4ccccc4n3)c2)cc1)C(=O)O (stereo not shown) [Example 12, 3-(2'-quinolylmethoxy)-N-(4"-(1-carboxyethoxy)benzyl)aniline] | not observed | significant and specific decrease |  |  |  | 
O=C(O)CN(Cc1ccccc1)c1cccc(OCc2ccc3ccccc3n2)c1 [ref. I] |  |  | 40 nM |  |  | 
O=C(O)COc1ccccc1CNc1cccc(OCc2ccc3ccccc3n2)c1 [Example 9, 3-(2'-quinolylmethoxy)-N-(2"-carboxymethoxybenzyl)aniline] | not observed | significant and specific decrease | 16 nM | 0.316 nM | 9.5 | 7.94 nM
c1ccc(CNc2cccc(OCc3ccc4ccccc4n3)c2)cc1 [example 39, reference compound] |  |  | 30 nM | 126 nM |  | 
CC(Oc1ccccc1CNc1ccc(OCc2ccc3ccccc3n2)cc1)C(=O)O (stereo not shown) [Example 13] | not observed | significant and specific decrease |  |  |  | 
O=C(O)CCCOc1ccccc1CNc1cccc(OCc2ccc3ccccc3n2)c1 [Example 14, 3-(2'-quinolylmethoxy)-N-(2"-carboxy-(3-propyloxy)benzyl)aniline] | not observed | significant and specific decrease |  |  |  | 
O=C(O)CCOc1ccccc1CNc1cccc(OCc2ccc3ccccc3n2)c1 [Example 11] | not observed | significant and specific decrease |  |  |  | 
c1ccc(CNc2ccccc2OCc2ccc3ccccc3n2)cc1 [example 67] |  |  | > 10000 nM |  |  | 
O=C(O)COc1cccc(CNc2cccc(OCc3ccc4ccccc4n3)c2)c1 [Example 1, 3-(2'-Quinolylmethoxy)-N-(3"-carboxymethoxybenzyl)aniline] |  |  |  | 5.01 nM | 8.3 | 50.1 nM
O=C(O)COc1ccccc1CNc1ccc(OCc2ccc3ccccc3n2)cc1 [Example 22, 4-(2'-Quinolylmethoxy)-N-(2"-carboxymethoxybenzyl)-aniline] | not observed | significant and specific decrease |  |  |  | 
O=C(O)COc1ccc(CNc2cccc(OCc3ccc4ccccc4n3)c2)cc1 [Example 10, 3-(2'-quinolylmethoxy)-N-(4"-carboxymethoxybenzyl)aniline] |  |  |  | 3.98 nM | 8.4 | 31.6 nM
O=C(NO)c1ccccc1Nc1cccc(OCc2ccc3ccccc3n2)c1 [Example 21, 3-(2'-Quinolylmethoxy)-N-(2"-hydroxaminocarbonylphenyl)-aniline] | not observed | significant and specific decrease |  |  |  | 
O=C(NO)c1ccc(CN(Cc2cccc(F)c2)c2cccc(OCc3ccc4ccccc4n3)c2)cc1 [Example 20, 3(2'-Quinolylmethoxy)-N-(3"-fluorobenzyl)-N-(4'"-hydroxaminocarbonylbenzyl)aniline] | not observed | significant and specific decrease |  |  |  | 
O=C(O)Cc1ccc(NCc2cccc(OCc3ccc4ccccc4n3)c2)cc1 [Example 8] | not observed | significant and specific decrease |  |  |  | 
c1ccc(CNc2ccc(OCc3ccc4ccccc4n3)cc2)cc1 [example 38] |  |  | 900 nM |  |  | 
O=C(O)CCCOc1ccc(CNc2cccc(OCc3ccc4ccccc4n3)c2)cc1 [Example 16] | not observed | significant and specific decrease |  |  |  | 
O=C(O)c1ccccc1NCc1cccc(OCc2ccc3ccccc3n2)c1 [Example 2] | not observed | significant and specific decrease |  |  |  | 
